# Experimental data taken from ChEMBL document CHEMBL5325415, “Falcipains: Biochemistry, target validation and structure-activity relationship studies of inhibitors as antimalarials” (Eur J Med Chem, 2023).
# *1 amine or outer side, *2 acyl side, *3 side chain or, on linkers, in order; H or OH if unused. Where a SMILES comes first, the peptide text is derived from it. [ ]: non-standard residue; d: D form. The star is where a group is joined. hPhe = N[C@@H](CCc1ccccc1)C(=O)O; Morpholide = C1CN(*)CCO1; Cbz = O=C(OCc1ccccc1)*; CO = O=C([*:1])[*:2]; CH2F = FC*
# Columns and labels:
# Falcipain 2 [1] = target: T1, Falcipain 2 (Plasmodium falciparum, UniProt Q9N6S8); test: Inhibition of Plasmodium falciparum FP-2 using Z-Leu-Arg-AMC as substrate pretreated with enzyme for 30 mins followed by substrate addition and measured for 30 mins by spectrofluorometry
# T1 sequence (Q9N6S8 whole entry): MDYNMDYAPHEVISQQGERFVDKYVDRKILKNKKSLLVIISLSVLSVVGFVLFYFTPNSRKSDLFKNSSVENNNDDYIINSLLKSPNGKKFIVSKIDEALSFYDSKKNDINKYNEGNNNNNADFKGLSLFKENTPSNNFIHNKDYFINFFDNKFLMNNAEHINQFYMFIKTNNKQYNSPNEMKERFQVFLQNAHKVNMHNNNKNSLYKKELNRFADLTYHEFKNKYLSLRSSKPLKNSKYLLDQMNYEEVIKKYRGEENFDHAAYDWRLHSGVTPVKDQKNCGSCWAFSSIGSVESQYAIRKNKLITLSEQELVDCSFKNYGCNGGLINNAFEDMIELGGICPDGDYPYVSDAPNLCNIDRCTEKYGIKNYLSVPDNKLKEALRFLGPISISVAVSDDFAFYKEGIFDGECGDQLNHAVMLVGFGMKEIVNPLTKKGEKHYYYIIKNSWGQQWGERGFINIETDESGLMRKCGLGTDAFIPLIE
# [2] = target: T2, Falcipain 2 (Plasmodium falciparum) (UniProt Q9N6S8); test: Inhibition of Plasmodium falciparum FP-2 using Z-Leu-Arg-AMC as substrate at 10 uM pretreated with enzyme for 30 mins followed by substrate addition and measured for 30 mins by spectrofluorometry; details: time 60.0 min
# T2 sequence (whole entry): T1 sequence (Q9N6S8 whole entry)
# Falcipain-3 = target: T3, Falcipain-3 (Plasmodium falciparum 3D7, UniProt Q8IIL0); test: Inhibition of Plasmodium falciparum D10 trophozite lysates FP-3 pretreated with compound for 1 hr followed by labeling with Cy5-DCG04 for 1 hr by fluorescence scanning analysis; format: subcellular
# T3 sequence (Q8IIL0 whole entry): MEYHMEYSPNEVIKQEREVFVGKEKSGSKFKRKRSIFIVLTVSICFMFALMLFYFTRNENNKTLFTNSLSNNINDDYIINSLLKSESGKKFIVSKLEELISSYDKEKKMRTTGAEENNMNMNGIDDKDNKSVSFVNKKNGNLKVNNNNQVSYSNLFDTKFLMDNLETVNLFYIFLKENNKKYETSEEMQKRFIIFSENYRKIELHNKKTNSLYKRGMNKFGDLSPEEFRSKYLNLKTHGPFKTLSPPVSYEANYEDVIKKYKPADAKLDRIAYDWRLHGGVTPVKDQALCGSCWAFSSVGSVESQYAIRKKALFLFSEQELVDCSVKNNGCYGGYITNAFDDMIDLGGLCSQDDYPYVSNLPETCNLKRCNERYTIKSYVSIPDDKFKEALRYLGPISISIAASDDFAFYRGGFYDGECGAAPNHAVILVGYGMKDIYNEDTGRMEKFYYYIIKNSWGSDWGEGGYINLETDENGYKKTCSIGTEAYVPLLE
# Plasmodium falciparum [3] = test: Antimalarial activity against Chloroquine-sensitive Plasmodium falciparum 3D7 infected in human erythrocytes assessed as inhibition of parasite growth incubated for 72 hrs by Giemsa staining based analysis; format: functional, organism-based; details: 3D7, Erythrocyte
# Plasmodium falciparum [4] = test: Antimalarial activity against chloroquine-resistant Plasmodium falciparum RKL9 infected in RBC measured after 24 to 30 hrs by microscopic analysis; format: functional, organism-based; details: RKL9, Erythrocyte
# Falcipain 2 [5] = target: T1, Falcipain 2; test: Inhibition of Plasmodium falciparum FP-2 using Cbz-Phe-Arg-AMC as substrate pretreated with enzyme for 10 mins followed by substrate addition and measured after 10 mins by fluorescence based analysis
# Plasmodium falciparum [6] = test: Antimalarial activity against chloroquine-sensitive Plasmodium falciparum 3D7 infected in RBC measured after 24 to 30 hrs by microscopic analysis; format: functional, organism-based; details: 3D7, Erythrocyte
# Plasmodium falciparum [7] = test: Antimalarial activity against Chloroquine-resistant Plasmodium falciparum RKL9 infected in human erythrocytes assessed as inhibition of parasite growth incubated for 72 hrs by Giemsa staining based analysis; format: functional, organism-based; details: RKL9, Erythrocyte
# Falcipain 2 [8] = target: T1, Falcipain 2; test: Inhibition of Plasmodium falciparum trophozite extracts FP-2
# Falcipain 2 [9] = target: T1, Falcipain 2; test: Inhibition of Plasmodium falciparum Itg2 trophozite extracts FP-2 using Z-phe-Arg-AMC as substrate pretreated with enzyme for 30 mins followed by substrate addition and measured for 30 mins by spectrofluorometry
# [10] = Inhibition of Plasmodium vinckei extracts VP-2 using Z-phe-Arg-AMC as substrate pretreated with enzyme for 30 mins followed by substrate addition and measured for 30 mins by spectrofluorometry
# [11] = test system: Cathepsin L (relative to Plasmodium falciparum FP-2); test: Selectivity index, ratio of Ki for inhibition of human Cathepsin L to Ki for inhibition of Plasmodium falciparum FP-2; format: toxicity; details: read-out: Ratio Ki
# Falcipain 2 [12] = target: T1, Falcipain 2; test: Inhibition of Plasmodium falciparum FP-2 using Cbz-Leu-Arg-AMC as substrate and measured for 5 to 10 mins by fluorescence spectrophotometric analysis
# [13] = test system: Cathepsin B (relative to Plasmodium falciparum FP-2); test: Selectivity index, ratio of Ki for inhibition of human Cathepsin B to Ki for inhibition of Plasmodium falciparum FP-2; format: toxicity; details: read-out: Ratio Ki
# Plasmodium falciparum [14] = test: Antiplasmodial activity against chloroquine-sensitive Plasmodium falciparum D6 infected in human RBC assessed as inhibition of parasite growth measured after 72 hrs by Malstat assay; format: functional, organism-based; details: D6, Erythrocyte
# Plasmodium falciparum [15] = test: Antiplasmodial activity against chloroquine-resistant Plasmodium falciparum W2 infected in human RBC assessed as inhibition of parasite growth measured after 72 hrs by Malstat assay; format: functional, organism-based; details: W2, Erythrocyte
# Falcipain 2 [16] = target: T1, Falcipain 2; test: Binding affinity to Plasmodium falciparum FP-2 by surface plasmon resonance analysis
# Falcipain 2 [17] = target: T1, Falcipain 2; test: Inhibition of Plasmodium falciparum FP-2 using Z-phe-Arg-AMC as substrate pretreated with enzyme for 30 mins followed by substrate addition and measured for 30 mins by fluorescence based analysis
# Plasmodium falciparum [18] = test: Antimalarial activity against Plasmodium falciparum FCB1 infected in erythrocytes assessed as inhibition of [3H]hypoxanthine incorporation incubated for 24 to 48 hrs by beta counting analysis; format: functional, organism-based; details: FCB1, Erythrocyte
# Plasmodium falciparum [19] = test: Antiplasmodial activity against Plasmodium falciparum ItG2; format: functional; details: read-out: LD50 (the source's name)
# Plasmodium falciparum [20] = test: Antiplasmodial activity against Plasmodium falciparum FCR3; format: functional, organism-based
# Plasmodium falciparum [21] = test: Antiplasmodial activity against Plasmodium falciparum D6; format: functional, organism-based
# Plasmodium falciparum [22] = test: Antiplasmodial activity against Plasmodium falciparum W2; format: functional, organism-based
# Plasmodium falciparum [23] = test: Antiplasmodial activity against Plasmodium falciparum HB3; format: functional, organism-based
# Plasmodium falciparum [24] = test: Antiplasmodial activity against Plasmodium falciparum ItG; format: functional, organism-based
# Plasmodium falciparum [25] = test: Antiplasmodial activity against Plasmodium falciparum Dd2; format: functional, organism-based
structure (smiles),measurement,setting,value
O=C(N[C@H](Cc1c[nH]c2ccccc12)C(=O)NCc1ccc([N+](=O)[O-])cc1)Oc1ccccc1,IC50,Falcipain 2 [1],10000 nM
same,inhibition,[2],49.5%
CC[C@H](C)[C@@H](C(=O)O[C@@H](CC(C)C)C(=O)N[C@@H](CC(C)C)C(=O)N[C@@H](C)/C=C/C(=O)N1C(=O)C=C(OC)[C@@H]1C)N(C)C [GALLINAMIDE A],IC50,Falcipain-3,22 nM
N#C/C(=C\c1ccc(O)cc1)c1nc2ccccc2[nH]1,IC50,Plasmodium falciparum [3],47600 nM
O=C(Cc1ccccc1)N[C@H](Cc1c[nH]c2ccccc12)C(=O)NCc1ccccc1,IC50,Falcipain 2 [1],39400 nM
same,inhibition,[2],25.7%
Cc1ccc(-c2nn(-c3ccccc3)cc2/C=C/c2nnc(-c3ccc([N+](=O)[O-])cc3)o2)cc1,IC50,Plasmodium falciparum [4],1.57 µg/mL
same,IC50,Falcipain 2 [5],16000 nM
same,IC50,Plasmodium falciparum [6],0.486 µg/mL
N#C/C(=C\c1cccc(Br)c1)c1nc2ccccc2[nH]1,IC50,Plasmodium falciparum [7],43400 nM
same,IC50,Plasmodium falciparum [3],14400 nM
CC(C)C[C@H](NC(=O)N1CCOCC1)C(=O)N[C@@H](CCc1ccccc1)C(=O)CF ({Morpholide-CO}-Leu-[hPhe]-CH2F),IC50,Falcipain 2 [8],0.42 nM
COc1cc2ccnc(-c3ccc(OCc4ccccc4)cc3)c2cc1OC,IC50,Falcipain 2 [9],3000 nM
O=C(N[C@H](/C=C/S(=O)(=O)c1ccccc1)CCc1ccccc1)[C@H](Cc1ccccc1)NC(=O)N1CCOCC1,IC50,[10],100 nM
same,IC50,Falcipain 2 [9],80 nM
N#CCNC(=O)C1(NC(=O)OCc2ccccc2)CCCCC1,selectivity ratio,[11],22.1
same,Ki,Falcipain 2 [12],1200 nM
same,selectivity ratio,[13],> 100
O=C(/C=C\c1ccc(O)c(O)c1)O[C@H]1CO[C@@H](Oc2c(-c3ccc(O)cc3)oc3cc(O)cc(O)c3c2=O)[C@H](OC(=O)/C=C/c2ccc(O)cc2)[C@H]1O,IC50,Plasmodium falciparum [14],2900 nM
same,IC50,Falcipain 2 [1],440 nM
same,IC50,Plasmodium falciparum [15],2800 nM
same,Kd,Falcipain 2 [16],33600 nM
COc1cc2cc(/C=C/C(=O)c3ccc(Cl)cc3Cl)c(Cl)nc2cc1OC,IC50,Falcipain 2 [17],> 100000 nM
same,IC50,Plasmodium falciparum [18],19000 nM
N=C(N)NCCC[C@H](NC(=O)[C@H](Cc1ccccc1)NC(=O)OCc1ccccc1)C(=O)CF (Cbz-Phe-Arg-CH2F),LC50,Plasmodium falciparum [19],64 nM
same,IC50,Plasmodium falciparum [20],64 nM
same,IC50,Plasmodium falciparum [21],64 nM
same,IC50,Plasmodium falciparum [22],64 nM
same,IC50,Plasmodium falciparum [23],100 nM
same,IC50,Falcipain 2 [8],0.36 nM
N#C/C(=C\c1cccc(F)c1)c1nc2ccccc2[nH]1,IC50,Plasmodium falciparum [7],53300 nM
same,IC50,Plasmodium falciparum [3],22200 nM
C(=C\c1cn(-c2ccccc2)nc1-c1ccccc1)/c1nnc(-c2c[nH]c3ccccc23)o1,IC50,Plasmodium falciparum [4],0.724 µg/mL
same,IC50,Falcipain 2 [5],7000 nM
same,IC50,Plasmodium falciparum [6],0.245 µg/mL
C=CCn1c(SCC(=O)Nc2sc3c(c2C(N)=O)CCC3)nc2scc(-c3ccccc3)c2c1=O,IC50,Falcipain 2 [1],2810 nM
same,inhibition,[2],88.7%
CC(C)C[C@H](NC(=O)N1CCOCC1)C(=O)N[C@H](/C=C/S(=O)(=O)c1ccccc1)CCc1ccccc1,IC50,Plasmodium falciparum [24],1.03 nM
same,IC50,Plasmodium falciparum [21],1.51 nM
same,IC50,[10],200 nM
same,IC50,Plasmodium falciparum [22],1.2 nM
same,IC50,Plasmodium falciparum [25],0.66 nM
same,IC50,Plasmodium falciparum [23],1.6 nM
